Test results reported in PubChem BioAssay AID220 (DTP/NCI, 2004).
Several values for one entry are separate records, joined by “and”; a condition that tells them apart may be missing. Equal values may be shown once. Records with an inconclusive call do not appear.

Test system: CD8F1 mice, subcutaneous mammary adenocarcinoma, T/C%
Experiment: NCI In Vivo Anticancer Drug Screen. Data for tumor model Mammary Adenocarcinoma CD8F1 (subcutaneous) in CD8F1
Conditions: higher = larger tumour
Procedure, shortened: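 Antitumor activity is assessed in transplantable-tumor mice by comparing the treated group with a vehicle-treated control group. Survival or tumor size serves as the measure, reported as T divided by C.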

CN(Cc1cnc2nc(N)nc(N)c2n1)c1ccc(C(=O)N[C@@H](CCC(=O)O)C(=O)O)cc1
T/C (endpoint: mean tumor weight (est.), dose: 20.0 mg/kg/injection, schedule: Q07DX006 (ip), vehicle: sodium bicarbonate): 192 % of control | T/C (endpoint: mean tumor weight (est.), dose: 75.0 mg/kg/injection, schedule: Q07DX004 (ip), vehicle: sodium bicarbonate): 91 % of control | T/C (endpoint: mean tumor weight (est.), dose: 100.0 mg/kg/injection, schedule: Q07DX004 (ip), vehicle: sodium bicarbonate): 90 % of control | T/C (endpoint: mean tumor weight, dose: 2.0 mg/kg/injection, schedule: Q01DX009 (ip), vehicle: saline): 84 % of control | T/C (endpoint: mean tumor weight, dose: 2.0 mg/kg/injection, schedule: Q01DX009 (ip), vehicle: sodium bicarbonate): 234 % of control | T/C (endpoint: mean tumor weight, dose: 4.0 mg/kg/injection, schedule: Q01DX009 (ip), vehicle: saline): 44 % of control | T/C (endpoint: mean tumor weight, dose: 4.0 mg/kg/injection, schedule: Q01DX009 (ip), vehicle: sodium bicarbonate): 84 % of control | T/C (endpoint: mean tumor weight, dose: 12.5 mg/kg/injection, schedule: Q07DX004 (ip), vehicle: saline): 87 % of control | T/C (endpoint: mean tumor weight, dose: 25.0 mg/kg/injection, schedule: Q07DX004 (ip), vehicle: saline): 23 % of control | T/C (endpoint: mean tumor weight, dose: 25.0 mg/kg/injection, schedule: Q07DX006 (ip), vehicle: saline): 44 % of control | T/C (endpoint: mean tumor weight, dose: 50.0 mg/kg/injection, schedule: Q07DX003 (ip), vehicle: sodium bicarbonate): 50 % of control | T/C (endpoint: mean tumor weight, dose: 50.0 mg/kg/injection, schedule: Q07DX004 (ip), vehicle: saline): 26 % of control | T/C (endpoint: mean tumor weight, dose: 50.0 mg/kg/injection, schedule: Q07DX006 (ip), vehicle: saline): 93 % of control | T/C (endpoint: mean tumor weight, dose: 100.0 mg/kg/injection, schedule: Q07DX003 (ip), vehicle: sodium bicarbonate): 43 % of control | T/C (endpoint: mean tumor weight, dose: 100.0 mg/kg/injection, schedule: Q07DX006 (ip), vehicle: saline): 56 % of control | T/C (endpoint: mean tumor weight, dose: 150.0 mg/kg/injection, schedule: Q07DX005 (ip), vehicle: sodium bicarbonate): 107 % of control | T/C (endpoint: mean tumor weight, dose: 200.0 mg/kg/injection, schedule: Q07DX005 (ip), vehicle: sodium bicarbonate): 70 % of control | T/C (endpoint: mean tumor weight, dose: 250.0 mg/kg/injection, schedule: Q07DX005 (ip), vehicle: sodium bicarbonate): 45 % of control | T/C (endpoint: median tumor weight (est.), dose: 2.5 mg/kg/injection, schedule: Q07DX005 (ip), vehicle: sodium bicarbonate): 63 % of control | T/C (endpoint: median tumor weight (est.), dose: 5.0 mg/kg/injection, schedule: Q07DX005 (ip), vehicle: sodium bicarbonate): 110 % of control and 111 % of control | T/C (endpoint: median tumor weight (est.), dose: 20.0 mg/kg/injection, schedule: Q07DX005 (ip), vehicle: sodium bicarbonate): 112 % of control | T/C (endpoint: median tumor weight (est.), dose: 40.0 mg/kg/injection, schedule: Q07DX005 (ip), vehicle: sodium bicarbonate): 85 % of control and 107 % of control | T/C (endpoint: median tumor weight (est.), dose: 80.0 mg/kg/injection, schedule: Q07DX005 (ip), vehicle: sodium bicarbonate): 20 % of control

[N-]=[N+]=CC(=O)CCC(=O)C=[N+]=[N-]
T/C (endpoint: median tumor weight (est.), dose: 6.25 mg/kg/injection, schedule: Q07DX005 (ip), vehicle: DMSO): 65 % of control | T/C (endpoint: median tumor weight (est.), dose: 12.5 mg/kg/injection, schedule: Q07DX005 (ip), vehicle: DMSO): 73 % of control | T/C (endpoint: median tumor weight (est.), dose: 25.0 mg/kg/injection, schedule: Q07DX005 (ip), vehicle: DMSO): 78 % of control | T/C (endpoint: median tumor weight (est.), dose: 50.0 mg/kg/injection, schedule: Q07DX005 (ip), vehicle: DMSO): 38 % of control | T/C (endpoint: median tumor weight (est.), dose: 100.0 mg/kg/injection, schedule: Q07DX005 (ip), vehicle: DMSO): 47 % of control

C/C(=N\NC(N)=O)c1cccc(/C(C)=N/NC(N)=O)n1
T/C (endpoint: median tumor weight change, dose: 62.5 mg/kg/injection, schedule: Q01DX001 (ip), vehicle: saline with Tween-80): 64 % of control | T/C (endpoint: median tumor weight change, dose: 125.0 mg/kg/injection, schedule: Q01DX001 (ip), vehicle: saline with Tween-80): 53 % of control | T/C (endpoint: median tumor weight change, dose: 250.0 mg/kg/injection, schedule: Q01DX001 (ip), vehicle: saline with Tween-80): 48 % of control

Nc1nc(=S)c2[nH]cnc2[nH]1
T/C (endpoint: median tumor weight (est.), dose: 1.0 mg/kg/injection, schedule: Q07DX005 (ip), vehicle: Klucel (hydroxypropylcellulose) (HPC)): 71 % of control | T/C (endpoint: median tumor weight (est.), dose: 2.0 mg/kg/injection, schedule: Q07DX005 (ip), vehicle: Klucel (hydroxypropylcellulose) (HPC)): 74 % of control | T/C (endpoint: median tumor weight (est.), dose: 4.0 mg/kg/injection, schedule: Q07DX005 (ip), vehicle: Klucel (hydroxypropylcellulose) (HPC)): 42 % of control | T/C (endpoint: median tumor weight (est.), dose: 8.0 mg/kg/injection, schedule: Q07DX005 (ip), vehicle: Klucel (hydroxypropylcellulose) (HPC)): 20 % of control | T/C (endpoint: median tumor weight (est.), dose: 8.0 mg/kg/injection, schedule: Q07DX005 (ip), vehicle: other): 29 % of control | T/C (endpoint: median tumor weight (est.), dose: 12.0 mg/kg/injection, schedule: Q07DX005 (ip), vehicle: other): 19 % of control | T/C (endpoint: median tumor weight (est.), dose: 16.0 mg/kg/injection, schedule: Q07DX005 (ip), vehicle: Klucel (hydroxypropylcellulose) (HPC)): 7 % of control | T/C (endpoint: median tumor weight (est.), dose: 16.0 mg/kg/injection, schedule: Q07DX005 (ip), vehicle: other): 16 % of control
